In patent US8163700B2, “Inhibitors of myelin-associated glycoprotein (MAG) activity for regulating neural growth and regeneration” (Research Foundation of City University of New York, priority 2002, dated 2012):

Tests used:
[1] = system: cerebellar neurons on CHO cells expressing MAG; experiment: Neurite outgrowth on MAG-expressing CHO cells in the presence of MAG peptides (FIGS. 4 and 5); assay type: cell-based; conditions: for effect on the ability of MAG-expressing cells to inhibit neurite outgrowth / neurite length relative to neurites extended without peptide or with MAG Igd4 peptides: peptide 15 μM, overnight, FIG. 4; for neurite length relative to neurites extended without peptide or with MAG Igd4 peptides: neurons on MAG-expressing cells
Protocol: FIG. 4 Inhibition of neurite outgrowth from cerebellar neurons by MAG; peptides Cerebellar neurons were isolated (Example 1) and grown overnight on a monolayer of control-transfected CHO cells (not shown) or CHO cells expressing MAG in the absence (striped bar) or the presence (grey bars) of MAG peptides (15 μM) derived from MAG Ig-like domain 4 or 5. Neurons were stained for GAP-43 antigen and neurite length was measured. Results are shown as number of neurons in each treatment having neurites longer than two times the length of the cell body.
FIG. 5 Inhibition of neurite outgrowth from cerebellar neurons by MAG peptides Cerebellar neurons were isolated (Example 1) and grown for 18 hrs on a monolayer of control-transfected CHO cells (R2) or CHO cells expressing MAG in the absence of a peptide (MAG) or in the presence of a peptide derived from sialoadhesin Ig-like domain 5 (non-MAG “control peptide”) or a MAG peptide (M433 or M462 at 20 μM) derived from MAG Ig-like domain 5. Neurons were stained for GAP-43 antigen and neurite length was measured and the average length was calculated for 180-200 neurons (+/−SEM).
Confluent monolayers of control, MAG-, truncated MAG- or chimeric MAG-Sn-expressing CHO cells were established over a 24-hour (h) period in individual chambers of an 8-well tissue culture slide (Lab-Tek). Co-cultures were established as described previously (Doherty et al., Nature, 343, pp. 464-66 (1990); Neuron, 5, pp. 209-19 (1990); Mukhopadhyay et al., Neuron, 13, pp. 757-67 (1994)) by adding approximately 5000 cerebellar neurons to the CHO monolayers. Culture medium was SATO containing 2% FCS. After periods of time as indicated, the co-cultures were fixed for 30 minutes (min) with 4% paraformaldehyde and permeabilized with ice-cold methanol for 2 min. The cells were then blocked for 30 min with DMEM containing 10% FCS and incubated for 2 h with a rabbit polyclonal antibody against the neuronal marker GAP43 (1:4000). Cells were washed three times with PBS-BSA (2%) and then incubated for 30 min at room temperature with a biotinylated donkey anti-rabbit Ig (1:300, Amersham), washed three times, and incubated with streptavidin-conjugated Texas Red (1:300, Amersham) for 30 min. After three more washes, the slides were mounted in Permfluor (Baxter) and viewed with a Zeiss fluorescent microscope. The length of the longest neurite for each GAP43-positive neuron was determined using the Biological Detection System image analysis program (Pittsburgh).
Peptides corresponding to amino acid residues […] of MAG (MAG(343-371)), amino acid residues 363-397 (MAG(363-397)), amino acid residues 394-428 (MAG(394-428)), amino acid residues 422-451 (MAG(422-451)), amino acid residues 442-471 (MAG(442-471)), and amino acid residues 461-498 (MAG(461-498)) were synthesized. Peptides were obtained from SynPep Corp. (Dublin, Calif.). MAG(343-371), MAG(363-397) and MAG(394-428) correspond to amino acid residues from the Ig4 domain of MAG. MAG(422-451), MAG(442-471) and MAG(461-498) corresponds to amino acid residues from the Ig5 domain of MAG. […] Results are shown in FIG. 4 (and are represented as number of neurons with processes longer than 2-times the cell diameter). […] Results are shown in FIG. 5 (and are represented as average neurite length for 180-200 neurons).

cerebellar neurons = experiment: Neurite outgrowth on L1-Fc substrate in the presence of soluble MAG-Fc chimeras (FIG. 3); assay type: cell-based; conditions: soluble protein 25 μg/ml, 18 hours, compared to control chimera
Protocol: FIG. 3 Inhibition of neurite outgrowth from cerebellar neurons by MAG-Fc Derivatives Cerebellar neurons were isolated (Example 1) and plated onto a growth promoting substrate of L1 protein (Example 4). A control MUC-Fc fusion (clear bar), wild-type MAG-Fc (striped bar) and MAG-Fc derivatives having point mutations in MAG Ig-like domains 4 or 5 (grey bars) were constructed (Example 4) and added in soluble form to neurons (25 μg/ml). After 18 hours, cultures were fixed and stained for GAP-43 antigen. Neurite length was measured and the average length was calculated for 180-200 neurons (+/−SEM).
Individual wells of an eight-chamber tissue culture plastic slide (Lab-Tek, Nuc. Inc.) were incubated with 0.3 nil of 16.6 μg/ml poly-1-lysine in sterile water for at least one hour under sterile conditions. Each well was washed twice with 400 μl of a 0.1M sodium bicarbonate solution, pH 9.6, and then received 0.3 ml of 0.1M sodium bicarbonate solution, pH 9.6, containing 15 μg/ml goat anti-human IgG (Fc-specific) monoclonal antibody (Sigma). The wells were incubated for 2 hours (h) at 37° C., and washed three times with 0.4 ml of ice-cold DMEM. Each well then received 0.3 nil of DMEM containing 40 μg/ml of L1-Fc and was incubated for 2-4 h at 37° C. The welts were washed twice DMEM.
Cerebellar neurons (post-natal days 2-7) were dissociated by trypsinization as described in Example 1, except that the dissociated neurons were resuspended in 5 ml of SATO medium containing 2% dialyzed FBS. To an individual well coated with a monolayer of L1-Fc as described above, 5.0×10^4 cerebellar neurons were added, followed by addition of one of the mutant MAG-Fc or MUC18-Fc chimeric soluble protein described above at a concentration of 25 μg/ml. Neurons were cultured for 18 hours at 37° C., and then fixed and stained for GAP43 essentially as described in Example 2. Neurite length was measured for 180-200 neurons.

Molecule | inhibition of neurite outgrowth (in words) (cerebellar neurons) | other results
M462: peptide of MAG amino acid residues 462-486 (SEQ ID NO: 24) (YSERSGLLLTSILTLRGQAQAPPRV) |  | attenuation of inhibition of neurite outgrowth by MAG ([1]; peptide 20 μM, 18 hours, FIG. 5): even more strongly attenuated inhibition by MAG
MAG(422-451): peptide of MAG amino acid residues 422-451 (SEQ ID NO: 15) (AAARDTVQCLCVVKSNPEPSVAFELPSRNV) |  | effect on the ability of MAG-expressing cells to inhibit neurite outgrowth [1]: strongly attenuated inhibition by MAG; neurite length relative to neurites extended without peptide or with MAG Igd4 peptides [1]: at least twice as long
MAG(442-471): peptide of MAG amino acid residues 442-471 (SEQ ID NO: 16) (VAFELPSRNVTVNETEREFVYSERSGLLLT) |  | effect on the ability of MAG-expressing cells to inhibit neurite outgrowth [1]: strongly attenuated inhibition by MAG; neurite length relative to neurites extended without peptide or with MAG Igd4 peptides [1]: at least twice as long
MAG(L431D)-Fc: murine MAG-Fc with point mutation L431D, Ig domain 5 (protein, listed as Mus sp., Fc fusion) MIFLATLPLFWIMISASRGGHWGAWMPSTISAFEGTCVSIPCRFDFPDELRPAVVHGVWYFNSPYPKNYPPVVFKSRTQVVHESFQGRSRLLGDLGLRNCTLLLSTLSPELGGKYYFRGDLGGYNQYTFSEHSVLDIVNTPNIVVPPEVVAGTEVEVSCMVPDNCPELRPELSWLGHEGLGEPTVLGRLREDEGTWVQVSLLHFVPTREANGHRLGCQAAFPNTTLQFEGYASLDVKYPPVIVEMNSSVEAIEGSHVSLLCGADSNPPPLLTWMRDGMVLREAVAKSLYLDLEEVTPGEDGVYACLAENAYGQDNRTVELSVMYAPWKPTVNGTVVAVEGETVSILCSTQSNPDPILTIFKEKQILATVIYESQLQLELPAVTPEDDGEYWCVAENQYGQRATAFNLSVEFAPIILLESHCAAARDTVQCDCVVKSNPEPSVAFELPSRNVTVNETEREFVYSERSGLLLTSILTIRGQAQAPPRVICTSRNLYGTQSLELPFQGAHRLMWAKIGPVGAVVAFAILIAIVCYITQTRRKKNVTESSSFSGGDNPHVLYSPEFRISGAPDKYESREVSTRDCH | none | 
MAG(R485D)-Fc: murine MAG-Fc with point mutation R485D, Ig domain 5 (protein, listed as Mus sp., Fc fusion) MIFLATLPLFWIMISASRGGHWGAWMPSTISAFEGTCVSIPCRFDFPDELRPAVVHGVWYFNSPYPKNYPPVVFKSRTQVVHESFQGRSRLLGDLGLRNCTLLLSTLSPELGGKYYFRGDLGGYNQYTFSEHSVLDIVNTPNIVVPPEVVAGTEVEVSCMVPDNCPELRPELSWLGHEGLGEPTVLGRLREDEGTWVQVSLLHFVPTREANGHRLGCQAAFPNTTLQFEGYASLDVKYPPVIVEMNSSVEAIEGSHVSLLCGADSNPPPLLTWMRDGMVLREAVAKSLYLDLEEVTPGEDGVYACLAENAYGQDNRTVELSVMYAPWKPTVNGTVVAVEGETVSILCSTQSNPDPILTIFKEKQILATVIYESQLQLELPAVTPEDDGEYWCVAENQYGQRATAFNLSVEFAPIILLESHCAAARDTVQCLCVVKSNPEPSVAFELPSRNVTVNETEREFVYSERSGLLLTSILTIRGQAQAPPDVICTSRNLYGTQSLELPFQGAHRLMWAKIGPVGAVVAFAILIAIVCYITQTRRKKNVTESSSFSGGDNPHVLYSPEFRISGAPDKYESREVSTRDCH | none | 
MAG(K435E)-Fc: murine MAG-Fc with point mutation K435E, Ig domain 5 (protein, listed as Mus sp., Fc fusion) MIFLATLPLFWIMISASRGGHWGAWMPSTISAFEGTCVSIPCRFDFPDELRPAVVHGVWYFNSPYPKNYPPVVFKSRTQVVHESFQGRSRLLGDLGLRNCTLLLSTLSPELGGKYYFRGDLGGYNQYTFSEHSVLDIVNTPNIVVPPEVVAGTEVEVSCMVPDNCPELRPELSWLGHEGLGEPTVLGRLREDEGTWVQVSLLHFVPTREANGHRLGCQAAFPNTTLQFEGYASLDVKYPPVIVEMNSSVEAIEGSHVSLLCGADSNPPPLLTWMRDGMVLREAVAKSLYLDLEEVTPGEDGVYACLAENAYGQDNRTVELSVMYAPWKPTVNGTVVAVEGETVSILCSTQSNPDPILTIFKEKQILATVIYESQLQLELPAVTPEDDGEYWCVAENQYGQRATAFNLSVEFAPIILLESHCAAARDTVQCLCVVESNPEPSVAFELPSRNVTVNETEREFVYSERSGLLLTSILTIRGQAQAPPRVICTSRNLYGTQSLELPFQGAHRLMWAKIGPVGAVVAFAILIAIVCYITQTRRKKNVTESSSFSGGDNPHVLYSPEFRISGAPDKYESREVSTRDCH | none | 
MAG(E445K)-Fc: murine MAG-Fc with point mutation E445K, Ig domain 5 (protein, listed as Mus sp., Fc fusion) MIFLATLPLFWIMISASRGGHWGAWMPSTISAFEGTCVSIPCRFDFPDELRPAVVHGVWYFNSPYPKNYPPVVFKSRTQVVHESFQGRSRLLGDLGLRNCTLLLSTLSPELGGKYYFRGDLGGYNQYTFSEHSVLDIVNTPNIVVPPEVVAGTEVEVSCMVPDNCPELRPELSWLGHEGLGEPTVLGRLREDEGTWVQVSLLHFVPTREANGHRLGCQAAFPNTTLQFEGYASLDVKYPPVIVEMNSSVEAIEGSHVSLLCGADSNPPPLLTWMRDGMVLREAVAKSLYLDLEEVTPGEDGVYACLAENAYGQDNRTVELSVMYAPWKPTVNGTVVAVEGETVSILCSTQSNPDPILTIFKEKQILATVIYESQLQLELPAVTPEDDGEYWCVAENQYGQRATAFNLSVEFAPIILLESHCAAARDTVQCLCVVKSNPEPSVAFKLPSRNVTVNETEREFVYSERSGLLLTSILTIRGQAQAPPRVICTSRNLYGTQSLELPFQGAHRLMWAKIGPVGAVVAFAILIAIVCYITQTRRKKNVTESSSFSGGDNPHVLYSPEFRISGAPDKYESREVSTRDCH | none | 
MAG(R491E)-Fc: murine MAG-Fc with point mutation R491E, Ig domain 5/TM (protein, UniProt P20917 20-516, looked up, variant R491E, extracellular domain Fc fusion, murine MAG-Fc with point mutation R491E, Ig domain 5/TM) extracellular domain: GHWGAWMPSTISAFEGTCVSIPCRFDFPDELRPAVVHGVWYFNSPYPKNYPPVVFKSRTQVVHESFQGRSRLLGDLGLRNCTLLLSTLSPELGGKYYFRGDLGGYNQYTFSEHSVLDIVNTPNIVVPPEVVAGTEVEVSCMVPDNCPELRPELSWLGHEGLGEPTVLGRLREDEGTWVQVSLLHFVPTREANGHRLGCQAAFPNTTLQFEGYASLDVKYPPVIVEMNSSVEAIEGSHVSLLCGADSNPPPLLTWMRDGMVLREAVAKSLYLDLEEVTPGEDGVYACLAENAYGQDNRTVELSVMYAPWKPTVNGTVVAVEGETVSILCSTQSNPDPILTIFKEKQILATVIYESQLQLELPAVTPEDDGEYWCVAENQYGQRATAFNLSVEFAPIILLESHCAAARDTVQCLCVVKSNPEPSVAFELPSRNVTVNETEREFVYSERSGLLLTSILTIRGQAQAPPRVICTSENLYGTQSLELPFQGAHRLMWAKIGP | none | 
